{
  "source": "the supplement of paper PMC10307832",
  "test_in_all_cases": "relative viability (nuclei count vs DMSO), 5 days (fraction); higher = more cells survive",
  "key": {"[1]": {"compound": "COc1cc(-c2nn([C@H]3CC[C@H](N4CCN(C(C)=O)CC4)CC3)c3ncnc(N)c23)ccc1NC(=O)c1cc2ccccc2n1C + CC1(C)CCC(c2ccc(Cl)cc2)=C(CN2CCN(c3ccc(C(=O)NS(=O)(=O)c4ccc(N[C@H](CCN5CCOCC5)CSc5ccccc5)c(S(=O)(=O)C(F)(F)F)c4)cc3)CC2)C1 [Navitoclax] (partner 0.5 µM)", "how_it_was_run": "(§1)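 Relative viability was taken as the ratio of nuclei in treated wells to nuclei in vehicle wells. Lung cancer cell lines in 1536-well plates received compounds by pin tool one day after seeding, either one drug alone or a fixed anchor-drug dose plus five library-drug doses (not always all listed) in √10 steps. Nuclei were counted on 4× images after 5 days of treatment, and values are medians of duplicate plates.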"}, "[2]": {"compound": "COc1cc(-c2nn([C@H]3CC[C@H](N4CCN(C(C)=O)CC4)CC3)c3ncnc(N)c23)ccc1NC(=O)c1cc2ccccc2n1C + CC(=O)c1c(C)c2cnc(Nc3ccc(N4CCNCC4)cn3)nc2n(C2CCCC2)c1=O [Palbociclib] (partner 0.5 µM)", "how_it_was_run": "as §1"}, "[3]": {"compound": "COc1cc(-c2nn([C@H]3CC[C@H](N4CCN(C(C)=O)CC4)CC3)c3ncnc(N)c23)ccc1NC(=O)c1cc2ccccc2n1C + C[C@]1(O)C[C@@H](c2nc(-c3ccc4ccc(-c5ccccc5)nc4c3)c3c(N)nccn32)C1 [Linsitinib] (partner 1 µM)", "how_it_was_run": "as §1"}, "Midostaurin + Navitoclax": {"compound": "CO[C@@H]1[C@H](N(C)C(=O)c2ccccc2)C[C@H]2O[C@]1(C)n1c3ccccc3c3c4c(c5c6ccccc6n2c5c31)C(=O)NC4 [Midostaurin] + CC1(C)CCC(c2ccc(Cl)cc2)=C(CN2CCN(c3ccc(C(=O)NS(=O)(=O)c4ccc(N[C@H](CCN5CCOCC5)CSc5ccccc5)c(S(=O)(=O)C(F)(F)F)c4)cc3)CC2)C1 [Navitoclax] (partner 0.5 µM)", "how_it_was_run": "as §1"}, "Midostaurin + Alpelisib": {"compound": "CO[C@@H]1[C@H](N(C)C(=O)c2ccccc2)C[C@H]2O[C@]1(C)n1c3ccccc3c3c4c(c5c6ccccc6n2c5c31)C(=O)NC4 [Midostaurin] + Cc1nc(NC(=O)N2CCC[C@H]2C(N)=O)sc1-c1ccnc(C(C)(C)C(F)(F)F)c1 [Alpelisib] (partner 2 µM)", "how_it_was_run": "as §1"}},
  "data": [
    {"cell line": "UMC-11", "values": [
      {"measurement": "relative viability", "setting": "[1]; first compound 0.0128 µM", "value": 0.315},
      {"measurement": "relative viability", "setting": "[1]; first compound 0.04048 µM", "value": 0.323},
      {"measurement": "relative viability", "setting": "[1]; first compound 0.128 µM", "value": 0.28},
      {"measurement": "relative viability", "setting": "[1]; first compound 1.28 µM", "value": 0.297},
      {"measurement": "relative viability", "setting": "[2]; first compound 0.0128 µM", "value": 0.349},
      {"measurement": "relative viability", "setting": "[2]; first compound 0.04048 µM", "value": 0.341},
      {"measurement": "relative viability", "setting": "[2]; first compound 0.128 µM", "value": 0.335},
      {"measurement": "relative viability", "setting": "[2]; first compound 1.28 µM", "value": 0.341},
      {"measurement": "relative viability", "setting": "[3]; first compound 0.0128 µM", "value": 0.961},
      {"measurement": "relative viability", "setting": "[3]; first compound 0.04048 µM", "value": 1.01},
      {"measurement": "relative viability", "setting": "[3]; first compound 0.128 µM", "value": 0.984},
      {"measurement": "relative viability", "setting": "[3]; first compound 1.28 µM", "value": 0.781},
      {"measurement": "relative viability", "setting": "Midostaurin + Navitoclax; first compound 0.01 µM", "value": 0.32},
      {"measurement": "relative viability", "setting": "Midostaurin + Navitoclax; first compound 0.03162 µM", "value": 0.346},
      {"measurement": "relative viability", "setting": "Midostaurin + Navitoclax; first compound 0.1 µM", "value": 0.241},
      {"measurement": "relative viability", "setting": "Midostaurin + Navitoclax; first compound 0.3162 µM", "value": 0.177},
      {"measurement": "relative viability", "setting": "Midostaurin + Alpelisib; first compound 0.01 µM", "value": 1.04},
      {"measurement": "relative viability", "setting": "Midostaurin + Alpelisib; first compound 0.03162 µM", "value": 0.915},
      {"measurement": "relative viability", "setting": "Midostaurin + Alpelisib; first compound 0.1 µM", "value": 0.792},
      {"measurement": "relative viability", "setting": "Midostaurin + Alpelisib; first compound 0.3162 µM", "value": 0.375}
    ]}
  ]
}
